We go through 2 compounds from patent publication US20100113415A1, “EPHA4 RTK INHIBITORS FOR TREATMENT OF NEUROLOGICAL AND NEURODEGENERATIVE DISORDERS AND CANCER” (priority 2008, published 2010).

For one assay, the system named is C2C12 cells. In words: Proliferation assay (cell confluence), C2C12 cells. It is filed as cell-based, mouse. The note with it: at 5 μM. The method, then: (§1) C2Cl2 were plated at 15,000 cells per well and then differentiated into myotubes with DMEM supplemented with 2% horse serum for 3 days in 24 well ImageLock™ plate (Essen Instruments, MI, USA). Primary Rat cortical astrocytes were plated at 3.105 cells/ml onto 24 well ImageLock™ plate.
(§2) Cells were placed into the IncuCyte™ at 37° C. and 95% CO2/5% O2, for two to three days. During this time, the cells within each well were repeatedly imaged at fixed time intervals (every three hours). The IncuCyte™ system automatically monitored the proliferation using the percentage of confluence. Percent of confluence can be graphed over time to evaluate the characteristics of proliferation in the presence of pharmacological agents.
(§3) Compounds were tested at 5 μM in quadruplicate. The percentage of reduction of cell confluence was calculated from the AUCs in comparison with the AUCs of the control wells (1% DMSO).

The next assay addresses T1, P60c-src (Homo sapiens, UniProt P12931).
T1 construct: purchased Upstate biotechnology, USA
In words: Src kinase counterscreen enzymatic assay (TR-FRET). It is filed as biochemical. The note with it: 0.5 μM ATP. The procedure:
(§4) Counterscreen assays were developed for the tyrosine kinases src kinase and Jak2 kinase, with a format essentially identical to the EphA4 kinase TR-FRET format. Jak2 (50 ng) (Cell Signaling, USA) was incubated with 0.5 μM of biotinylated FLT3 peptide (Cell Signaling, USA) in presence of 5 μM of ATP (Sigma). P60c-src (10 U/well) (Upstate biotechnology, USA) was incubated with biotinylated Poly(Glu Tyr) peptide (100 nM) in presence of 0.5 μM of ATP. The enzymatic reaction was stopped after 60 min by adding 15 mM EDTA. The detection reaction and energy transfer signal measurements were similar to those previously described. Results were expressed as ratios of the absorbencies 665/615.
(§5) Compounds were titrated in duplicate at 11 points concentration starting at 100 μM with a 3 fold increment. Compounds were diluted in DMSO. […] Percentage inhibition for each compound was then calculated based on the value of the 100% inhibition. Concentration-response curves were represented and the concentrations for 50% inhibition (IC50) were calculated.

The target in another assay is T2, Jak2 (Homo sapiens, UniProt O60674).
T2 construct: purchased Cell Signaling, USA
T2 sequence (O60674 whole entry, species assumed): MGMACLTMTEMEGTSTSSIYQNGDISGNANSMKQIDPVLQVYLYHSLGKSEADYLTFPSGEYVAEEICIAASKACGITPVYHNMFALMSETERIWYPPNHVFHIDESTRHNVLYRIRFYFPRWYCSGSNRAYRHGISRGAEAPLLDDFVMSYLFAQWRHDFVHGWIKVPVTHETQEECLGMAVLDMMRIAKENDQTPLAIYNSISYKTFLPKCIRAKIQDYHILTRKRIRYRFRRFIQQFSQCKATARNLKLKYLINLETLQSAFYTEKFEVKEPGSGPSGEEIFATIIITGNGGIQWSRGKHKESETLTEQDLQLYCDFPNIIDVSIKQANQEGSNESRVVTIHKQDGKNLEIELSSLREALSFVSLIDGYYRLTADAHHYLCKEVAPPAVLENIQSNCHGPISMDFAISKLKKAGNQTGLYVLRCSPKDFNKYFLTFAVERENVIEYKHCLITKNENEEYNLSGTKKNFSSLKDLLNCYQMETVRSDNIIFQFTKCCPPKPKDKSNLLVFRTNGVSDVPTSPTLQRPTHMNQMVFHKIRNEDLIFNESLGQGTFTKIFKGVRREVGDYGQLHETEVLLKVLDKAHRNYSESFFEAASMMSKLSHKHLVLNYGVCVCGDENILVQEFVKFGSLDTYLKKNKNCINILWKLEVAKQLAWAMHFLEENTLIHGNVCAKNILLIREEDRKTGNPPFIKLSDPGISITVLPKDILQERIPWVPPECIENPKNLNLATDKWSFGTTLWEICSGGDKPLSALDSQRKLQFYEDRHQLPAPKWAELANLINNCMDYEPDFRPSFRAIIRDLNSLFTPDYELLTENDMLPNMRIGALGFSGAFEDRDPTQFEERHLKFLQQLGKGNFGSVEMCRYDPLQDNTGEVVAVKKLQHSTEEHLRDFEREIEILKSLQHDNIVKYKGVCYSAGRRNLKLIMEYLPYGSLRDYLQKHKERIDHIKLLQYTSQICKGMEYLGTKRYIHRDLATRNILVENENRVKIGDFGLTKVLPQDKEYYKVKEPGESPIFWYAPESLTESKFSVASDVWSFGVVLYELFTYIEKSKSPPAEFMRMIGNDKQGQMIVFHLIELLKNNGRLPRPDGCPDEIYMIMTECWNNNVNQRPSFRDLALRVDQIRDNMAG
Kind of assay: Jak2 kinase counterscreen enzymatic assay (TR-FRET). As to conditions: 5 μM ATP. It is filed as biochemical. The procedure:
as §4, §5

The test system of assay [1] is Jak2/Stat3 activation with Interferon Gamma in MCF-7 cells. In words: Cell-based counterscreen assay (IFN-γ activated Jak2/Stat3, pGAS-Luc in MCF-7 cells). The note with it: for IC50: Homo sapiens, MCF7, inflexion point, read-out: Cell Counter Screen Assay IP. The source says: EphA4 cell-based assay was based on the signaling pathway of EphA4, which involves activation of the tyrosine kinase Jak2 and the transcriptional activator Stat3. However, pharmacological agents could also interfere downstream of EphA4 signaling and particularly on Jak2 activity. To counterscreen this potential effect unrelated to EphA4 activity, a new assay was designed based on direct activation of the tyrosine kinase Jak2 and the transcriptional activator Stat3 with Interferon Gamma (IFN-γ).
MCF-7 cells were maintained in MEM growth media, supplemented with 10% fetal bovine serum, 2 mM L-glutamine, 1.5 g/L sodium bicarbonate, 0.1 mM non-essential amino acids, 1 mM sodium pyruvate, and 0.01 mg/ml bovine insulin. For the luciferase assay MCF-7 cells were co-transfected the next day with 50 μg of pGAS-Luc and 5 μg of empty vector pRL-CMV, which encoded the Renilla luciferase, and was included in the transfection mix for normalization. Six hours after transfection the cells were trypsinized and plated at 4.105 cells/ml into 96 well Black/Clear Poly-D-Lysine coated plates (Biocoat) that had been pre-spotted with compounds. IFN-γ (BD Pharmingen, USA) was then added to the wells. Cells were lysed the next day using the Reporter Lysis Buffer (Promega), and the luciferase activity was measured using the Dual Luciferase Assay (Promega) following the manufacturer's directions. The Firefly and Renilla luminescences are read consecutively on a Top-Count (Perkin-Elmer).
Results are expressed as a ratio of the two luminescence: Firefly Luciferase/Renilla Luciferase. Cell viability was assessed on parallel plates using the Cell Glo Assay (Promega) following the manufacturer's directions. Results are expressed as percent of cell death in comparison with vehicle-treated wells.
Compounds were titrated in duplicate at 10 points concentration starting at 100 μM with a 1.5 fold increment. Concentration-response curves were represented and the concentrations at the inflexion point (IP) were calculated. The maximum effect was given by the maximum percent inhibition calculated from the results of the control wells (containing only DMSO).

Assay [2] has as its target T3, Recombinant EphA4 kinase His6-TEV-EphA4 (aa. 615-911) (Homo sapiens, UniProt P54764).
T3 construct: His6-TEV-EphA4 (36 KD) (aa. 615-911); His6 (N); TEV cleavage site (N); made in house; host or cells: Sf9 (baculovirus)
T3 sequence (P54764 615-911): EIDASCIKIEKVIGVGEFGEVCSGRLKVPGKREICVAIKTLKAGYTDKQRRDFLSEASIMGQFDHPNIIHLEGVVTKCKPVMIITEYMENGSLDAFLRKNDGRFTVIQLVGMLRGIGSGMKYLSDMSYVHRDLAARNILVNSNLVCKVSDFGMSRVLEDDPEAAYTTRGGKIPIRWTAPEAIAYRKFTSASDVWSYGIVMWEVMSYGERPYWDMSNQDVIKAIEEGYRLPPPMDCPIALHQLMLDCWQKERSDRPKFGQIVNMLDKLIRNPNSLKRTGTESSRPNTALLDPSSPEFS
Kind of assay: EphA4 kinase enzymatic assay (TR-FRET). The note with it: for IC50: 25 μM ATP, TR-FRET; for inhibition at up to 100 µM: maximum percent inhibition, titration starting at 100 μM, read-out: EphA4 Kinase max inhibition in %. It is filed as biochemical. The procedure:
Recombinant EphA4 kinase His6-TEV-EphA4 (36 KD) (aa. 615-911) was expressed in Sf9 using baculovirus expression system. Hi-tagged protein was purified by high performance liquid chromatography in two step, using a His Trap HP column and a heparin column. The potency of compounds to inhibit EphA4 kinase phosphorylation was measured by an enzymatic assay based on time resolved fluorescence energy transfer assay format (TR-FRET), using Eu-W1024 anti-pTyr antibody (Perkin Elmer, USA) as a donor and SureLight APC (Perkin Elmer, USA) as an acceptor.
Biotinylated Poly(Glu Tyr) peptide (50 nM) was incubated in 384-well with 25 μM ATP (Sigma) and 10 ng EphA4 kinase in NEBuffer (New England Biolabs) for 60 minutes at rt. The reaction was stopped by 15 mM of EDTA solution for 10 minutes at rt. The detection mixture containing 0.5 nM Eu-W1024 anti-pTyr antibody (Perkin Elmer, USA) and 50 nM SureLight APC (Perkin Elmer, USA) was added to the wells and the plate was incubated for 30 min at rt, while protected from light. Energy transfer signal was measured using a Victor 2V (excitation filter 340, emission filter 615 and 665, delay time 50 μs). Results were expressed as ratios of the absorbencies 665/615.
as §5

The subject of assay [3] is Primary Rat cortical astrocytes. In words: Proliferation assay (cell confluence), astrocytes. The note with it: at 5 μM. It is filed as cell-based. The method, then: as §1, §2, §3

T1 sequence (P12931 whole entry): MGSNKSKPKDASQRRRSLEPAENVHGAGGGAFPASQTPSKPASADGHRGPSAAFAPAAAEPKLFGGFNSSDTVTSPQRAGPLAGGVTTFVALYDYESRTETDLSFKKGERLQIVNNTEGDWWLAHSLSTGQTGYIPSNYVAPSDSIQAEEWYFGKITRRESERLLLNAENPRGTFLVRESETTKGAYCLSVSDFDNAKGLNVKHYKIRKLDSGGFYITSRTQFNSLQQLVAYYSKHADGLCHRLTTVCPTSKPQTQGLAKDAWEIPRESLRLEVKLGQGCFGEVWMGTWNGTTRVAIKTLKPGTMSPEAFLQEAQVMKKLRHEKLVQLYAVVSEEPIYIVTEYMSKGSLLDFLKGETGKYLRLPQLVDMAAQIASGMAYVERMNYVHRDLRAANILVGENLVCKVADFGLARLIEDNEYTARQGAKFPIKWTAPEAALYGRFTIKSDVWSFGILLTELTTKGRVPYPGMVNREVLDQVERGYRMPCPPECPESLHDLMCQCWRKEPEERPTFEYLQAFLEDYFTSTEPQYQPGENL

As for `CC1CCc2c(-c3ccccc3Cl)nc3[nH]nc(N)c3c2C1` (stereo not shown) [Example 63], the “% Reduction of Confluence C2C12 Cells” value in the assay with C2C12 cells is 9.2% at 5 μM. Also, the IC50 against P60c-src is 8.3 µM; against Jak2, over 100000 nM; in assay [1], 20 µM; in assay [2], 2100 nM. In addition, the “Cell Counter Screen Assay max inhibition in %” value in assay [1] was 82%. Besides, in assay [2], the inhibition at up to 100 µM was 99%. The “% Reduction of Confluence Astrocytes” value in assay [3] is on record as 14.8% at 5 μM.
On to `Cc1ccccc1-c1nc2[nH]nc(N)c2c2c1CCC(C)(C)C2` [Example 67], for which the “% Reduction of Confluence C2C12 Cells” value with C2C12 cells stood at 49.2% at 5 μM. Also, the IC50 is 0.3 µM against P60c-src, 1000 nM against Jak2, 13 µM in assay [1] and 1500 nM in assay [2]. Besides, in assay [1], the “Cell Counter Screen Assay max inhibition in %” value came to 81%. The inhibition at up to 100 µM in assay [2] turned out to be 100%. The “% Reduction of Confluence Astrocytes” value in assay [3] was 29.1% at 5 μM.
